Among the data in patent US7223759B2, “Antibacterial 3,5-diaminopiperidine-substituted aromatic and heteroaromatic compounds” (Anadys Pharmaceuticals, Inc., priority 2003, dated 2007) are MIC values, retold here.

The structures appear in SMILES notation.

For the first test, the system named is Escherichia coli (ATCC25922) or Staphylococcus aureus (ATCC25923). Kind of test: Antibacterial MIC, microdilution method in Mueller-Hinton medium. It is filed as cell-based. Particulars: Escherichia coli, 18 h, MIC in E. coli or S. aureus; two-fold serial dilutions 64 to 0.5 μg/ml in duplicate; 18 hours of incubation at 35° C.; read-out: Potency (MIC). In a few lines:
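Two-fold serial dilutions from 64 to 0.5 μg/ml, in duplicate, by broth microdilution in Mueller-Hinton medium (NCCLS M7-A5). MIC taken as the lowest concentration preventing visible growth after 18 h at 35° C.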
The MIC is the lowest concentration found to suppress growth. As to `Cl.N[C@@H]1C[C@H](N)CN(c2nc(NCc3ccco3)nc(N3C[C@H](N)C[C@H](N)C3)n2)C1` [N-furan-2-ylmethyl-4,6-Bis-((3R,5S)-3,5-diamino-piperidin-1-yl)-[1,3,5]triazine-2-amine], the MIC was above 64 µg/mL.

For `N[C@@H]1CC(c2nc(NCc3ccco3)nc(N3C[C@H](N)C[C@H](N)C3)n2)C[C@H](N)C1` (stereo partly drawn) [N-furan-2-ylmethyl-44,6-Bis-((3R,5S)-3,5-diamino-piperidin-1-yl)-[1,3,5]triazine-2-amine], the MIC was above 64 µg/mL.

On to `Cl.N[C@@H]1C[C@H](N)CN(c2nc(Nc3ccc4c(c3)CCC4)nc(N3C[C@H](N)C[C@H](N)C3)n2)C1` [N-indan-5-yl-4,6-Bis-((3R,5S)-3,5-diamino-piperidin-1-yl)-[1,3,5]triazine-2-amine], for which the MIC was above 64 µg/mL.

For the compound `Cl.N[C@@H]1C[C@H](N)CN(c2nc(Nc3ccon3)nc(N3C[C@H](N)C[C@H](N)C3)n2)C1` [N-isoxazol-3-yl-4,6-Bis-((3R,5S)-3,5-diamino-piperidin-1-yl)-[1,3,5]triazine-2-amine], the MIC was above 64 µg/mL.

`Cl.N[C@@H]1C[C@H](N)CN(c2nc(Nc3ccccc3)nc(N3C[C@H](N)C[C@H](N)C3)n2)C1` [N-phenyl-44,6-Bis-((3R,5S)-3,5-diamino-piperidin-1-yl)-[1,3,5]triazine-2-amine]: the minimal inhibitory concentration (MIC) was above 64 µg/mL.

In the case of `N[C@@H]1C[C@H](N)CN(c2nc(NC3CCCNC3)nc(N3C[C@H](N)C[C@H](N)C3)n2)C1` (stereo partly drawn) [N-piperidin-3-yl-4,6-Bis-((3R,5S)-3,5-diamino-piperidin-1-yl)-[1,3,5]triazine-2-amine], the MIC was above 64 µg/mL.

As to `N[C@@H]1CC(c2nc(NC3CCNCC3)nc(N3C[C@H](N)C[C@H](N)C3)n2)C[C@H](N)C1` (stereo partly drawn) [N-piperidin-4-yl-4,6-Biss-((3R,5S)-3,5-diamino-piperidin-1-yl)-[1,3,5]triazine-2-amine], the MIC is above 64 µg/mL.

With `N[C@@H]1C[C@H](N)CN(c2nc(Nc3ccc4ccc5cccc6ccc3c4c56)nc(N3C[C@H](N)C[C@H](N)C3)n2)C1` [N-pyren-1-yl-4,6-Bis-((3R,5S)-3,5-diamino-piperidin-1-yl)-[1,3,5]triazine-2-amine], the MIC was below 16 µg/mL.

On to `N[C@@H]1C[C@H](N)CN(c2nc(NC3CCNC3)nc(N3C[C@H](N)C[C@H](N)C3)n2)C1` (stereo partly drawn) [N-pyrrolidin-3-yl-4,6-Bis-((#r,5S)-3,5-diamino-piperidin-1-yl)-[1,3,5]triazine-2-amine], for which the MIC was above 64 µg/mL.

Regarding `N[C@@H]1C[C@H](N)CN(c2nc(Nc3cccc(NC(=O)c4cc5cccc(O)c5cc4O)c3)nc(N3C[C@H](N)C[C@H](N)C3)n2)C1` [N-{3-[(3,5-dihydroxy-naphthalene-2-carbonyl)-amino]-phenyl}-4,6-Bis-((3R,5S)-3,5-diamino-piperidin-1-yl)-[1,3,5]triazine-2-amine], the MIC was below 64 µg/mL.

With `Cl.O=C(Nc1ccc(Nc2nc(N3CCCCC3)nc(N3CCCCC3)n2)cc1Cl)c1ccc(C(F)(F)F)nc1O` [N-{3-chlorro-4-[(2-hydroxy-6-trifluoromethyl-pyridine-3-carbonyl)-amino]-phenyl}-4,6-Bis-((3R,5S)-3,5-diamino-piperidin-1-yl)-[1,3,5]triazine-2-amine], the MIC is below 16 µg/mL.

Consider `Cc1ccc(S(=O)(=O)NC(Cc2ccccc2)C(=O)Nc2ccc(Nc3nc(N4CCCCC4)nc(N4CCCCC4)n3)cc2O)cc1.Cl` [N-{3-hydroxy-4-[3-phenyl-2-(toluene-4-sulfonylamino)-propionylamino]-phjenyl}-4,6-Bis-((3R,5S)-3,5-diamino-piperidin-1-yl)-[1,3,5]triazine-2-amine], for which the minimal inhibitory concentration (MIC) is below 16 µg/mL.

Regarding `N[C@@H]1C[C@H](N)CN(c2nc(Nc3ccc(NC(=O)c4ccc5ccccc5c4)c(O)c3)nc(N3C[C@H](N)C[C@H](N)C3)n2)C1` [N-{3-hydroxy-4-[(naphthalene-2-carbonyl)-amino]-phenyl}-4,6-Bis-((3R,5S)-3,5-diamino-piperidin-1-yl)-[1,3,5]triazine-2-amine], the MIC was below 64 µg/mL.

For the compound `N[C@@H]1C[C@H](N)CN(c2nc(Nc3ccc(NC(=O)c4cnc5ccccc5n4)c(O)c3)nc(N3C[C@H](N)C[C@H](N)C3)n2)C1` [N-{3-hydroxy-4-[(quinoxaline-2-carbonyl)-amino]-phenyl}-4,6-Bis-((3R,5S)-3,5-diamino-piperidin-1-yl)-[1,3,5]triazine-2-amine], the MIC is below 64 µg/mL.

Turning to `COc1cnc(NS(=O)(=O)c2ccc(Nc3nc(N4C[C@H](N)C[C@H](N)C4)nc(N4C[C@H](N)C[C@H](N)C4)n3)cc2)nc1` [N-{4-(5-methoxy-pyrimidin-2-ylsulfamoyl)-phenyl]-4,6-Bis-((3R,5S)-3,5-diamino-piperidin-1-yl)-[1,3,5]triazine-2-amine], the MIC is above 64 µg/mL.

As for `Cl.O=C(CC(O)c1ccc(Nc2nc(N3CCCCC3)nc(N3CCCCC3)n2)cc1)Nc1ccccc1C(F)(F)F` [N-{4-[1-hydroxy-2-(2-trifluoromethyl-phenylcarbazmoyl)-ethyl]-phenyl}-4,6-Bis-((3R,5S)-3,5-diamino-piperidin-1-yl)-[1,3,5]triazine-2-amine], the MIC was below 64 µg/mL.

The same test, now with this note: Escherichia coli, 18 h, read-out: Potency (MIC).
For the compound `N[C@@H]1C[C@H](N)CN(c2nc(Nc3ccc4ccccc4c3)nc(N3C[C@H](N)C[C@H](N)C3)n2)C1` [N-naphthalene-2-yl-4,6-Bis-((3R,5S)-3,5-diamino-piperidin-1-yl)-[1,3,5]triazine-2-amine], the MIC was below 64 µg/mL.

Take `N[C@@H]1C[C@H](N)CN(c2nc(Nc3ccc(NC(=O)c4ccc(N5Cc6ccccc6C5)cc4O)c(Cl)c3)nc(N3C[C@H](N)C[C@H](N)C3)n2)C1` [N-{3-chloro-4-[4-(1,3-dihydro-isoindol-2-yl)-2-hydroxy-benzoylamino]-phenyl}-4,6-Bis-((3R,5S)-3,5-diamino-piperidin-1-yl)-[1,3,5]triazine-2-amine]: the MIC is below 16 µg/mL.

On to `N[C@@H]1C[C@H](N)CN(c2nc(Nc3ccc(NC(=O)c4c(O)ccc5ccccc45)c(Cl)c3)nc(N3C[C@H](N)C[C@H](N)C3)n2)C1` [N-{3-chloro-4-[(2-hydroxy-naphthalene-1-carbonyl)-amino]-phenyl}-4,6-Bis-((3R,5S)-3,5-diamino-piperidin-1-yl)-[1,3,5]triazine-2-amine], for which the MIC was below 16 µg/mL.

On to `N[C@@H]1C[C@H](N)CN(c2nc(Nc3ccc(NC(=O)C(=O)c4c[nH]c5ccccc45)c(O)c3)nc(N3C[C@H](N)C[C@H](N)C3)n2)C1` [N-{3-hydroxy-4-[2-(1H-indol-3-yl)-2-oxo-acetylamino]-phenyl}-4,6-Bis-((3R,5S)-3,5-diamino-piperidin-1-yl)-[1,3,5]triazine-2-amine], for which the MIC was below 16 µg/mL.

In the case of `N[C@@H]1C[C@H](N)CN(c2nc(Nc3ccc(NS(=O)(=O)c4ccc5c(c4)CN(C(=O)C(F)(F)F)CC5)c(O)c3)nc(N3C[C@H](N)C[C@H](N)C3)n2)C1` [N-{3-hydroxy-4-[2-(2,2,2-trifluoro-acetyl)-1,2,3,4-tetrahydro-isoquinoline-7-sulfonylamino]-phenyl}-4,6-Bis-((3R,5S)-3,5-diamino-piperidin-1-yl)-[1,3,5]triazine-2-amine], the MIC was above 64 µg/mL.

For `CC(C)CCCCCC(=O)Nc1ccc(S(=O)(=O)Nc2ccc(Nc3nc(N4C[C@H](N)C[C@H](N)C4)nc(N4C[C@H](N)C[C@H](N)C4)n3)cc2O)cc1` [N-{3-hydroxy-4-[4-(7-methyl-octanoylamino)-benzenesulfonylamino]-phenyl}-4,6-Bis-((3R,5S)-3,5-diamino-piperidin-1-yl)-[1,3,5]triazine-2-amine], the minimum inhibitory concentration (MIC) was below 16 µg/mL.

In the case of `Cc1ccc(C(=O)Nc2ccc(Nc3nc(N4C[C@H](N)C[C@H](N)C4)nc(N4C[C@H](N)C[C@H](N)C4)n3)cc2O)c(O)n1` [N-{3-hydroxy-4-[(2-hydroxy-6-methyl-pyridine-3-carbonyl)-amino]-phenyl}-4,6-Bis-((3R,5S)-3,5-diamino-piperidin-1-yl)-[1,3,5]triazine-2-amine], the MIC is below 64 µg/mL.

In the case of `N[C@@H]1C[C@H](N)CN(c2nc(Nc3ccc(NC(=O)c4ccc(C(F)(F)F)nc4O)c(O)c3)nc(N3C[C@H](N)C[C@H](N)C3)n2)C1` [N-{3-hydroxy-4-[(2-hydroxy-6-trifluoromethyl-pyridine-3-carbonyl)-amino]-phenyl}-4,6-Bis-((3R,5S)-3,5-diamino-piperidin-1-yl)-[1,3,5]triazine-2-amine], the MIC was below 64 µg/mL.

In the case of `N[C@@H]1C[C@H](N)CN(c2nc(Nc3ccc(NC(=O)c4c(O)ccc5ccccc45)c(O)c3)nc(N3C[C@H](N)C[C@H](N)C3)n2)C1` [N-{3-hydroxy-4-[(2-hydroxy-naphthalene-1-carbonyl)-amino]-phenyl}-4,6-Bis-((3R,5S)-3,5-diamino-piperidin-1-yl)-[1,3,5]triazine-2-amine], the MIC is below 16 µg/mL.

Take `N[C@@H]1C[C@H](N)CN(c2nc(Nc3ccc(NC(=O)c4cccnc4O)c(O)c3)nc(N3C[C@H](N)C[C@H](N)C3)n2)C1` [N-{3-hydroxy-4-[(2-hydroxy-pyridine-3-carbonyl)-amino]-phenyl}-4,6-Bis-((3R,5S)-3,5-diamino-piperidin-1-yl)-[1,3,5]triazine-2-amine]: the MIC was below 16 µg/mL.

As for `N[C@@H]1C[C@H](N)CN(c2nc(Nc3ccc(C(=O)CC(=O)Nc4ccc5c(c4)OC(F)(F)O5)cc3)nc(N3C[C@H](N)C[C@H](N)C3)n2)C1` [N-{4-[2-(2,2-difluoro-benzo[1,3]dioxol-5-ylcarbamoyl)-acetyl]-phenyl}-4,6-Bis-((3R,5S)-3,5-diamino-piperidin-1-yl)-[1,3,5]triazine-2-amine], the MIC is below 16 µg/mL.

Consider `N[C@@H]1C[C@H](N)CN(c2nc(Nc3ccc(C(=O)CC(=O)Nc4ccc(Cl)cc4Cl)cc3)nc(N3C[C@H](N)C[C@H](N)C3)n2)C1` [N-{4-[2-(2,4-dichloro-phenylcarbamoyl)-acetyl]-phenyl}-4,6-Bis-((3R,5S)-3,5-diamino-piperidin-1-yl)-[1,3,5]triazine-2-amine], for which the MIC is below 64 µg/mL.
